Values joined by “and” are separate entries in the source; they are usually repeats but may differ in a detail not shown here. Equal entries are not always repeated. After the bases stand the sugars from the 5' end (letter, count) and the backbone: PS all phosphorothioate, else s phosphorothioate and o phosphodiester by linkage. Methylation of C is not given here. e = 2'-O-(2-methoxyethyl) (MOE); d = 2'-deoxy (DNA)
Target: DGAT2
Conditions: ASO

Sequence | target mRNA inhibition (HepG2, 0.12 µM) | target mRNA inhibition (HepG2, 2.5 µM) | target mRNA inhibition (HepG2, 10 µM) | target mRNA inhibition (HepG2, 20 µM) [%]
GCCAGTTTCACAAAGCCCTT (sugars e5 d10 e5, PS) | 34% | – | – | –
GCCCAGCACCAAGGAATGGT (sugars e5 d10 e5, PS) | – | 0% | 59% | –
GCCCAGTTTCGGACCCACTG (sugars e2 d13 e5, PS) | 82% | – | – | –
GCCCTCCTCGAAGATCACCT (sugars e5 d10 e5, PS) | – | 37% | 76% | –
GCCTCGGTGTCCTCTCCTGT (sugars e5 d10 e5, PS) | – | 59% | 83% | –
GCCTGGACAAGTCCTGCCCA (sugars e2 d13 e5, PS) | 78% | 44% and 45% | 87% | 55
GCCTGGACAAGTCCTGCCCA (sugars e3 d14 e3, PS) | 84% | 45% and 42% | 89% | 48
GCCTGGGAACTTCTTGCTCA (sugars e5 d10 e5, PS) | 47% | – | – | –
GCCTTGGGAAGTCTCTCATA (sugars e5 d10 e5, PS) | – | 0% | 58% | –
GCTAAGCTTATTAGGTGTCT (sugars e5 d10 e5, PS) | – | 75% and 73% | 85% and 83% | –
GCTAGGACACCTGGAGCTGC (sugars e5 d10 e5, PS) | – | – | 95% and 80% and 96% | –
GCTCAGAGACTCAGCCGCAC (sugars e5 d10 e5, PS) | 86% | 41% | 60% | 47
GCTGAGTCTGTGCTGCA (sugars e3 d10 e4, PS) | – | 56% | 85% | –
GCTTCCTCCCACTTCAGTTT (sugars e5 d10 e5, PS) | – | 55% | 83% | –
GCTTGTACACTTCATTCTCT (sugars e5 d10 e5, PS) | – | 42% | 85% | –
GCTTGTCGAAGAGCTTCACC (sugars e5 d10 e5, PS) | – | 25% | 78% | –
GGAACTTCTTCTGGACCCAT (sugars e5 d10 e5, PS) | 36% | – | – | –
GGACCCCGGAGTAGGCGGCT (sugars e5 d10 e5, PS) | – | 30% | 82% | –
GGAGCCCTCACAGGGCCAGG (sugars e5 d10 e5, PS) | 38% | – | – | –
GGAGCTCAGAGACTCAGCCG (sugars e3 d14 e3, PS) | 81% | 17% | 53% | 25
GGAGTTTGTGTTTCCCATTT (sugars e5 d10 e5, PS) | – | 81% and 72% | 91% and 84% | –
GGATGTGTCATTTCCCCTGG (sugars e5 d10 e5, PS) | – | 66% | 96% | –

Sequence | target mRNA inhibition (HepG2, 0.12 µM) | target mRNA inhibition (HepG2, 2.5 µM) | target mRNA inhibition (HepG2, 10 µM) | target mRNA inhibition (HepG2, 20 µM) [%]
GGCACCAGCCCCCAGGTGTC (sugars e5 d10 e5, PS) | 30% | – | – | –
GGCATGCTTCCTCCCACTTC (sugars e5 d10 e5, PS) | – | 67% | 72% | –
GGCATGGAGCTCAGAGACTC (sugars e2 d13 e5, PS) | 77% | – | – | –
GGCCCAGATTTAGCCACCAC (sugars e5 d10 e5, PS) | – | 51% | 79% | –
GGCCCCAGGAGCCCTCCTCG (sugars e5 d10 e5, PS) | 40% | – | – | –
GGCTCAGTTCACCTCCAGGA (sugars e5 d10 e5, PS) | – | 56% | 90% | –
GGCTTGGAGTAGGGCACCAG (sugars e5 d10 e5, PS) | 56% | – | – | –
GGGAAGGATACCGCCAATGA (sugars e5 d10 e5, PS) | 57% | – | – | –
GGGAAGGTAAACTGAGGCCA (sugars e5 d10 e5, PS) | 32% | – | – | –
GGGATGATAAACACTAAGGT (sugars e5 d10 e5, PS) | 37% | – | – | –
GGGTCCTCTCCGCTGCC (sugars e3 d10 e4, PS) | – | 47% | 69% | –
GGTAAGGCCAAGGAAGTGAG (sugars e5 d10 e5, PS) | – | 66% | 80% | –
GGTCAGCAGGTTGTGTGTCT (sugars e5 d10 e5, PS) | 45% and 62% | – | – | –
GGTCAGCCTCGGCCTGACGC (sugars e5 d10 e5, PS) | 11% | – | – | –
GGTTGTGTGTCTTCACCAGC (sugars e5 d10 e5, PS) | 64% and 70% | 0% | – | –
GTAGCTGCTTTTCCACCTTG (sugars e5 d10 e5, PS) | 43% | – | – | –
GTAGGGCACCAGCCCCCAGG (sugars e5 d10 e5, PS) | 23% | – | – | –
GTCAAACCTAGGTTCAGACT (sugars e5 d10 e5, PS) | – | 68% | 87% | –
GTCATCCAGTATAGCCTAAT (sugars e5 d10 e5, PS) | 44% | – | – | –
GTCCTGGAGGGCGGAGAGGA (sugars e5 d10 e5, PS) | 32% | – | – | –
GTCTCATTCATCTGGGCCCT (sugars e5 d10 e5, PS) | – | 69% | 86% | –
GTGCTCTGTGGGCTCCT (sugars e3 d10 e4, PS) | – | 55% and 70% | 85% and 89% | –

Sequence | target mRNA inhibition (HepG2, 0.12 µM) | target mRNA inhibition (HepG2, 2.5 µM) | target mRNA inhibition (HepG2, 10 µM) | target mRNA inhibition (HepG2, 20 µM) [%]
GTGGTGATGGGCTTGGAGTA (sugars e5 d10 e5, PS) | 23% | – | – | –
GTGTACTTTGAGCATCCCCA (sugars e5 d10 e5, PS) | – | 63% and 62% | 88% and 87% | –
GTTCCAGTCAAACACCAGCC (sugars e5 d10 e5, PS) | 31% | – | – | –
GTTGGGCAGTCACCATTTGC (sugars e5 d10 e5, PS) | – | 21% | 58% | –
GTTGTGTGTCTTCACCAGCT (sugars e3 d14 e3, PS) | 56% | – | – | –
GTTTCGGACCCACTGTGACC (sugars e2 d13 e5, PS) | 70% | – | – | –
GTTTCGGACCCACTGTGACC (sugars e3 d14 e3, PS) | 71% | – | – | –
TAAAGAGGCTGGGCCATAGA (sugars e5 d10 e5, PS) | 21% | – | – | –
TACAAAAGTCTGACATGGTG (sugars e5 d10 e5, PS) | 40% | – | – | –
TAGAAATACAATTCCTGGAT (sugars e5 d10 e5, PS) | 71% | – | – | –
TAGCATTGCCACTCCCATTC (sugars e3 d14 e3, PS) | 68% | – | – | –
TAGCCAGGTAAGGCCGTATG (sugars e5 d10 e5, PS) | 56% and 60% | – | – | –
TAGCCTGGCTTTGATAACCC (sugars e5 d10 e5, PS) | 42% | – | – | –
TAGCTCATGGTGGCGGCATC (sugars e5 d10 e5, PS) | 35% | – | – | –
TAGGGCACCAGCCCCCAGGT (sugars e5 d10 e5, PS) | 32% | – | – | –
TATTCATCTTTCCAGATCCG (sugars e5 d10 e5, PS) | – | 66% | 91% | –
TATTCTAAAACTCAAATCCA (sugars e5 d10 e5, PS) | – | 21% | 75% | –
TCACTGATGACATATCCCCA (sugars e5 d10 e5, PS) | 52% | – | – | –
TCAGGACCTCAGGGCTGGCC (sugars e5 d10 e5, PS) | – | 64% | 82% | –
TCAGTTCACCTCCAGGACCT (sugars e5 d10 e5, PS) | 46% | – | – | –
TCATTCTCTCCAAAGGAGTA (sugars e5 d10 e5, PS) | 18% | – | – | –
TCATTTCATAGATGAGGAGA (sugars e5 d10 e5, PS) | 34% | – | – | –

Sequence | target mRNA inhibition (HepG2, 0.12 µM) | target mRNA inhibition (HepG2, 2.5 µM) | target mRNA inhibition (HepG2, 10 µM) | target mRNA inhibition (HepG2, 20 µM) [%]
TCCATGTCAGAGAGGCT (sugars e3 d10 e4, PS) | – | 78% and 76% | 65% and 89% | –
TCCGCAGGGTGACTGCATTC (sugars e5 d10 e5, PS) | 48% | – | – | –
TCCGGTCAGCCTCGGCCTGA (sugars e5 d10 e5, PS) | 20% | – | – | –
TCCTCTCCTGTTTGATGGGT (sugars e5 d10 e5, PS) | – | 83% and 90% | 89% and 84% | –
TCCTTTGAAATCCAATGCAC (sugars e5 d10 e5, PS) | – | 75% and 63% | 87% and 77% | –
TCTCACATGCCTGAGGGCAG (sugars e5 d10 e5, PS) | – | 70% | 82% | –
TCTGCGCGATTCACTGAGGA (sugars e5 d10 e5, PS) | – | 64% | 84% | –
TGACCTTGGGATAGTCCCTC (sugars e5 d10 e5, PS) | – | 93% | 89% | –
TGAGCTCTCAAGTCTTCCTC (sugars e5 d10 e5, PS) | – | 55% | 89% | –
TGCACCATAATCTGCACAGG (sugars e5 d10 e5, PS) | – | 75% and 71% | 80% and 91% | –
TGCAGCCTGGACAAGTCCTG (sugars e5 d10 e5, PS) | 67% | – | – | –
TGCCAATGCCTAGGTCA (sugars e3 d10 e4, PS) | – | 82% and 74% | 70% and 89% | –
TGCCCTTGCTGTAGGACCCA (sugars e5 d10 e5, PS) | – | 92% and 79% | 88% and 95% | –
TGCTGAGCTCATGAGAAGCT (sugars e5 d10 e5, PS) | – | 75% and 57% | 92% and 83% | –
TGCTGGATCCAGTGCCCCAT (sugars e5 d10 e5, PS) | 44% | – | – | –
TGGACAAGTCATCTTCCAGC (sugars e5 d10 e5, PS) | – | 52% | 74% | –
TGGACAAGTCCTGCCCATCT (sugars e2 d13 e5, PS) | 51% | – | – | –
TGGACAAGTCCTGCCCATCT (sugars e3 d14 e3, PS) | 69% | – | – | –
TGGAGCTCAGAGACTCAGCC (sugars e5 d10 e5, PS) | 77% | 19% | 70% | 46
TGGATACTCAGAAGAGCAGT (sugars e5 d10 e5, PS) | 37% | – | – | –
TGGCTGGGAGGAGTCCAGCA (sugars e5 d10 e5, PS) | 10% | – | – | –
TGGGAACAGCAGCATCAGCA (sugars e5 d10 e5, PS) | – | 65% | 80% | –
